This note sets out measurements from patent US6362165B1, “Hydroxyphenyl derivatives with HIV integrase inhibitory properties” (Pharmacor Inc., priority 1999, dated 2002).

One experiment concerns the target T1, HIV-1 integrase (Human immunodeficiency virus type 1 group M subtype B, UniProt P04585). In words: HIV-1 integrase inhibition assay (procedure of Burke et al.; radiolabeled duplex substrate, U5 end of HIV LTR). It is filed as biochemical. The note with it: Table 1; 3,4-dihydroxy derivative of the root amino acid, formula Ic; read-out: Anti-integrase activity (IC50) 3,4-dihydroxy derivative. The method, then:
For the purposes of Table 1 (and Table 2) the HIV-1 integrase inhibition assay was carried out following a known procedure (Burke, Jr. T. R. et al., J. Med. Chem. 38, 4171-4178 (1995)). A suitable radiolabeled duplex substrate corresponding to the U5 end of the HIV LTR was used.
Turning to `O=C(NC(Cc1ccc(O)c(F)c1)C(=O)NCCc1ccc(O)c(O)c1)c1ccc(O)c(O)c1` (racemic) [Example 48, N-[N′-(3′,4′-dihydroxybenzoyl)-DL-3-fluorotyrosinyl]-dopamine], the IC50 (as a rule, the point on the concentration scale where inhibition reaches its midpoint) stood at 1.4 µM.
For `O=C(NC(Cc1cccc(O)c1)C(=O)NCCc1ccc(O)c(O)c1)c1ccc(O)c(O)c1` (racemic) [Example 50, N-[N′-(3′,4′-dihydroxybenzoyl)-DL-m-tyrosyl]-dopamine], the IC50 came out at 1.3 µM.
For the molecule `O=C(N[C@H](Cc1ccc(O)cc1)C(=O)NCCc1ccc(O)c(O)c1)c1ccc(O)c(O)c1` [Example 10, N-[N′-(3′,4′-dihydroxybenzoyl)-D-tyrosyl]-dopamine], the IC50 amounted to 67 µM.
Still for that read-out and setting: next, `O=C(N[C@@H](Cc1ccc(O)cc1)C(=O)NCCc1ccc(O)c(O)c1)c1ccc(O)c(O)c1` [Example 12, N-[N′-(3′,4′-dihydroxybenzoyl)-L-tyrosyl]-dopamine]: 8 µM.
As to `O=C(N[C@@H](Cc1ccccc1)C(=O)NCCc1ccc(O)c(O)c1)c1ccc(O)c(O)c1` [Example 14, N-[N′-(3′,4′-dihydroxybenzoyl)-L-phenylalanyl]-dopamine], the IC50 came out at 45 µM.
For `O=C(N[C@@H](Cc1ccc(O)c(O)c1)C(=O)NCCc1ccc(O)c(O)c1)c1ccc(O)c(O)c1` [Example 16, N-[N′-(3′,4′-dihydroxybenzoyl)-L-3,4-dihydroxy-phenylalanyl]-dopamine], the IC50 came out at 8 µM.
Still for that read-out and setting: next, `C[C@H](NC(=O)c1ccc(O)c(O)c1)C(=O)NCCc1ccc(O)c(O)c1` [Example 20, N-[N′-(3′, 4′-dihydroxybenzoyl)-L-alanyl]-dopamine]: 71 µM; `O=C(CC[C@H](NC(=O)c1ccc(O)c(O)c1)C(=O)NCCc1ccc(O)c(O)c1)NCCc1ccc(O)c(O)c1` [Example 22, N-[′-(3′,4′-dihydroxybenzoyl)-δ-(3-hydroxytyramine)-L-glutamyl]-dopamine]: 11 µM.
For the molecule `O=C(CC[C@H](NC(=O)c1ccc(O)c(O)c1)C(=O)NCCc1ccc(O)c(O)c1)OCc1ccccc1` [Example 23, N-[′-(3′,4′-dihydroxybenzoyl)-δ-benzyloxy-L-glutamyl]-dopamine], the IC50 came to 26 µM.
Consider `CC(C)C[C@H](NC(=O)c1ccc(O)c(O)c1)C(=O)NCCc1ccc(O)c(O)c1` [Example 26, N-[N′-(3′,4′-dihydroxybenzoyl)-L-leucyl]-dopamine], for which the IC50 is 45 µM.
On to `O=C(NCCc1ccc(O)c(O)c1)[C@@H]1CCCN1C(=O)c1ccc(O)c(O)c1` [Example 28, N-[N′-(3′,4′-dihydroxybenzoyl)-L-prolyl]-dopamine], for which the IC50 stood at 80 µM.
As to `O=C(N[C@@H](Cc1c[nH]c2ccccc12)C(=O)NCCc1ccc(O)c(O)c1)c1ccc(O)c(O)c1` [Example 30, N-[N′-(3′,4′-dihydroxybenzoyl)-L-tryptophyl]-dopamine], the IC50 is 17 µM.
As to `O=C(N[C@@H](Cc1c[nH]cn1)C(=O)NCCc1ccc(O)c(O)c1)c1ccc(O)c(O)c1` [Example 33], the IC50 was determined as 0.1 µM.
On the same count and under the same terms, as for `O=C(CC[C@H](NC(=O)c1ccc(O)c(O)c1)C(=O)OCc1ccccc1)NCCc1ccc(O)c(O)c1` [Example 49, N-(3,4-dihydroxybenzoyl)-δ-N′-(3′,4′-dihydroxyphenethyl)-L-glutamine α-benzyl ester], the figure is 2.2 µM.

The experiment is the same for the next values; noted with them: Table 1; 4-hydroxy derivative of the root amino acid, formula Ic; read-out: Anti-integrase activity (IC50) 4-hydroxy derivative.
As for `O=C(N[C@@H](Cc1ccc(O)cc1)C(=O)NCCc1ccc(O)c(O)c1)c1ccc(O)cc1` [Example 11, N-[N′-(p-hydroxybenzoyl)-L-tyrosyl]-dopamine], the IC50 was found to be 88 µM.
In the case of `O=C(N[C@@H](Cc1ccccc1)C(=O)NCCc1ccc(O)c(O)c1)c1ccc(O)cc1` [Example 13, N-[N′-(p-hydroxybenzoyl)-L-phenylalanyl]-dopamine], the IC50 is over 200 µM.
For `C[C@H](NC(=O)c1ccc(O)cc1)C(=O)NCCc1ccc(O)c(O)c1` [Example 19, N-[N′-(p-hydroxybenzoyl)-L-alanyl]-dopamine], the IC50 is 160 µM.
For the molecule `O=C(CC[C@H](NC(=O)c1ccc(O)cc1)C(=O)NCCc1ccc(O)c(O)c1)NCCc1ccc(O)c(O)c1` [Example 21, N-[′-(p-hydroxybenzoyl)-6-(3-hydroxytyramine)-L-glutamyl]-dopamine], the IC50 stood at 64 µM.
With `CC(C)C[C@H](NC(=O)c1ccc(O)cc1)C(=O)NCCc1ccc(O)c(O)c1` [Example 25, N-[N′-(p-hydroxybenzoyl)-L-leucyl]-dopamine], the IC50 is over 200 µM.
In the case of `O=C(NCCc1ccc(O)c(O)c1)[C@@H]1CCCN1C(=O)c1ccc(O)cc1` [Example 27, N-[N′-(p-hydroxybenzoyl)-L-prolyl]-dopamine], the IC50 was over 200 µM.
As for “N-[N′-(p-hydroxybenzoyl)-L-tryptophanyl]-dopamine [Example 29]”, the IC50 amounted to 245 µM.

Staying with this experiment, now noted: Table 2; dipeptide derivatives of I; read-out: Anti-integrase activity (IC50).
`O=C(N[C@@H](Cc1ccc(O)cc1)C(=O)N[C@@H](Cc1ccc(O)cc1)C(=O)O)c1ccc(O)c(O)c1` [Example 36, N-[N′-(3′,4′-dihydroxybenzoyl)-L-tyrosyl]-L-tyrosine]: the IC50 was found to be 177 µM.
For `O=C(O)CNC(=O)[C@H](Cc1ccc(O)cc1)NC(=O)c1ccc(O)c(O)c1` [Example 37, N-[N′-(3′,4′-dihydroxybenzoyl)-L-tyrosyl]-glycine], the IC50 was over 200 µM.
Consider `O=C(CNC(=O)c1ccc(O)c(O)c1)N[C@@H](Cc1ccc(O)cc1)C(=O)O` [Example 39, N-[N′-(3′,4′-dihydroxybenzoyl)-glycyl]-L-tyrosine], for which the half-inhibitory concentration (IC50) was over 200 µM.
For the molecule `O=C(C[C@H](NC(=O)[C@H](Cc1ccc(O)cc1)NC(=O)c1ccc(O)c(O)c1)C(=O)NCCc1ccc(O)c(O)c1)OCc1ccccc1` [Example 41, N-[N′-[N″-(3″,4″-dihydroxybenzoyl)-L-tyrosyl]-L-γ-O-benzyl-aspartyl]-dopamine], the IC50 worked out at 20 µM.
Consider `O=C(N[C@@H](Cc1ccc(O)cc1)C(=O)N[C@@H](Cc1ccc(O)cc1)C(=O)NCCc1ccc(O)c(O)c1)c1ccc(O)c(O)c1` [Example 51], for which the IC50 stood at 17 µM.

The target in the next experiment is T1, HIV-1 integrase. In words: HIV-1 integrase inhibition assay (based on procedure of Hazuda et al.). In kind it is biochemical. The note with it: Table 3; Nα-caffeoyl derivative of the root amino acid, general formula I; read-out: Anti-integrase activity (IC50) Nα-Caffeoyl derivative. An excerpt:
For the purposes of Table 3 the HIV-1 integrase inhibition assay was based on a known procedure (Hazuda, D. J. et al., Nucleic Acids Res. 22, 1121-1122 (1994)).
With `O=C(C=Cc1ccc(O)c(O)c1)NC(CC(=O)NCCc1ccc(O)c(O)c1)C(=O)OCc1ccccc1` [Example 52, Nα-caffeoyl-Nγ-(3-hydroxytyramine)-L-aspartic acid benzyl ester], the IC50 stood at 2.2 µM.
As for `O=C(/C=C/c1ccc(O)c(O)c1)N[C@@H](Cc1ccc(O)c(O)c1)C(=O)NCCc1ccc(O)c(O)c1` [Example 54, N-(N′-caffeoyl-L-3,4-dihydroxyphenylalanyl)dopamine], the IC50 was 0.62 µM.
Same read-out and setting: next, `O=C(/C=C/c1ccc(O)c(O)c1)N[C@@H](Cc1ccc(O)c(O)c1)C(=O)NCc1ccc(O)c(O)c1` [Example 55, N-(N′-caffeoyl-L-3,4-dihydroxyphenylalanyl)-3,4-dihydroxybenzylamine]: 0.38 µM; `O=C(/C=C/c1ccc(O)c(O)c1)N[C@@H](CO)C(=O)NCCc1ccc(O)c(O)c1` [Example 59, N-(N′-caffeoyl-L-seryl)dopamine]: 0.14 µM; `O=C(C=Cc1ccc(O)c(O)c1)NC(CCC(=O)NCCc1ccc(O)c(O)c1)C(=O)NCCc1ccc(O)c(O)c1` [Example 60, N-[N′-caffeoyl-Nα-(3-hydroxytyramine)-L-glutamyl]dopamine]: 0.105 µM.
As to `O=C(/C=C/c1ccc(O)c(O)c1)N[C@@H](CC(=O)OCc1ccccc1)C(=O)NCCc1ccc(O)c(O)c1` [Example 61, N-(N′-caffeoyl-Oγ-benzyl-L-aspartyl)dopamine], the IC50 came out at 3.5 µM.
Turning to `O=C(O)C[C@H](NC(=O)/C=C/c1ccc(O)c(O)c1)C(=O)NCCc1ccc(O)c(O)c1` [Example 62, N-(N′-caffeoyl-L-aspartyl)dopamine], the IC50 is 3.5 µM.
With `O=C(/C=C/c1ccc(O)c(O)c1)N[C@@H](Cc1ccc(O)cc1)C(=O)NCc1ccc(O)c(O)c1` [Example 64, N-(N′-caffeoyl-L-tyrosyl)-3,4-dihydroxybenzylamine], the IC50 turned out to be 3 µM.
With “N-(N′-caffeoyl-L-tryptophanyl)dopamine [Example 53]”, the IC50 is 1.5 µM.

The experiment is the same for the next values; noted with them: Table 3; other Nα-3,4-dihydroxyphenyl derivative of the root amino acid, general formula I; read-out: Anti-integrase activity (IC50) Other Nα-3,4-dihydroxyphenyl derivative.
Regarding `O=C(N[C@@H](Cc1ccc(O)cc1)C(=O)NCc1ccc(O)c(O)c1)c1ccc(O)c(O)c1` [Example 56, N-[N′-(3′,4′-dihydroxybenzoyl)-L-tyrosyl]-3,4-dihydroxybenzylamine], the IC50 amounted to 0.78 µM.
Same read-out and setting: next, `O=C(Cc1ccc(O)c(O)c1)N[C@@H](Cc1ccc(O)c(O)c1)C(=O)NCCc1ccc(O)c(O)c1` [Example 57, N-[N′-(3′,4′-dihydroxyphenylacetyl)-L-3,4-dihydroxyphenylalanyl]dopamine]: 0.106 µM; `O=C(N[C@@H](CS)C(=O)NCCc1ccc(O)c(O)c1)c1ccc(O)c(O)c1` [Example 58, N-[N′-(3′,4′-dihydroxybenzoyl)-L-cysteinyl]dopamine]: 0.21 µM; `O=C(CC[C@H](NC(=O)c1ccc(O)c(O)c1)C(=O)O)NCCc1ccc(O)c(O)c1` [Example 63, Nα-(3,4-dihydroxybenzoyl)-Nδ-(3-hydroxytyramine) L-glutamic acid]: 2.8 µM.
